Data reported in US9695155B2, “Herbicidal substituted pyrimidinyloxy benzene compounds” (E. I. DU PONT DE NEMOURS AND COMPANY, priority 2013, dated 2017).

What was measured:
velvetleaf [1] = experiment: Test A preemergence; type: in vivo, Abutilon theophrasti
Summary of the method: (§1)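 Greenhouse pot test, loam/sand soil. Formulation: non-phytotoxic solvent mix plus surfactant. Pre: directed spray onto soil after sowing. Post: plants at 1–2 leaf, 2–10 cm. Rated visually vs untreated controls at ~10 d, 0 (no effect) to 100 (complete control).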

giant foxtail [2] = experiment: Test A postemergence; type: in vivo, Setaria faberii; details: 0 to 100 scale where 0 is no effect and 100 is complete control
Summary of the method: as §1

barnyardgrass [3] = experiment: Test C flooded paddy test; type: in vivo, Echinochloa crus-galli; details: Flood, scale 0 to 100 (0 no effect, 100 complete control), 13 to 15 days
Text: (§2) At time of treatment, test pots were flooded to 3 cm above the soil surface, treated by application of test compounds directly to the paddy water, and then maintained at that water depth for the duration of the test. Treated plants and controls were maintained in a greenhouse for 13 to 15 days, after which time all species were compared to controls and visually evaluated. […] A dash (-) response means no test result.

ducksalad = experiment: Test C flooded paddy test; type: in vivo, Heteranthera limosa; details: Flood, scale 0 to 100 (0 no effect, 100 complete control), 13 to 15 days
Text: as §2

corn [4] = experiment: Test A postemergence; type: in vivo, Zea mays; details: 0 to 100 scale where 0 is no effect and 100 is complete control
Summary of the method: as §1

giant foxtail [5] = experiment: Test A preemergence; type: in vivo, Setaria faberii; details: for Foxtail, Giant plant response rating: 500 g ai/ha
Summary of the method: as §1

corn [6] = experiment: Test A preemergence; type: in vivo, Zea mays
Summary of the method: as §1

wheat [7] = experiment: Test A preemergence; type: in vivo, Triticum aestivum
Summary of the method: as §1

large (Lg) crabgrass [8] = experiment: Test A preemergence; type: in vivo, Digitaria sanguinalis
Summary of the method: as §1

sedge, umbrella [9] = experiment: Test B flooded paddy test; type: in vivo, Cyperus difformis; details: Flood, 250 g ai/ha; 0 to 100 scale where 0 is no effect and 100 is complete control
Summary of the method: (§3)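 2-leaf stage plants; pots flooded to 3 cm, compound added to paddy water, depth maintained. Greenhouse 13–15 d. Visual rating vs untreated controls, 0 (no effect) to 100 (complete control); dash = no result.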

barnyardgrass [10] = experiment: Test B flooded paddy test; type: in vivo, Echinochloa crus-galli; details: Flood, 250 g ai/ha; 0 to 100 scale where 0 is no effect and 100 is complete control
Summary of the method: as §3

barnyardgrass [11] = experiment: Test A preemergence; type: in vivo, Echinochloa crus-galli; details: for Barnyardgrass plant response rating: 500 g ai/ha
Summary of the method: as §1

velvetleaf [12] = experiment: Test A postemergence; type: in vivo, Abutilon theophrasti; details: 0 to 100 scale where 0 is no effect and 100 is complete control
Summary of the method: as §1

rice [13] = experiment: Test C flooded paddy test; type: in vivo, Oryza sativa; details: Flood, scale 0 to 100 (0 no effect, 100 complete control), 13 to 15 days
Text: as §2

wheat [14] = experiment: Test A postemergence; type: in vivo, Triticum aestivum; details: 0 to 100 scale where 0 is no effect and 100 is complete control
Summary of the method: as §1

rice [15] = experiment: Test B flooded paddy test; type: in vivo, Oryza sativa; details: Flood, 250 g ai/ha; 0 to 100 scale where 0 is no effect and 100 is complete control
Summary of the method: as §3

barnyardgrass [16] = experiment: Test A postemergence; type: in vivo, Echinochloa crus-galli; details: 0 to 100 scale where 0 is no effect and 100 is complete control
Summary of the method: as §1

large (Lg) crabgrass [17] = experiment: Test A postemergence; type: in vivo, Digitaria sanguinalis; details: 0 to 100 scale where 0 is no effect and 100 is complete control
Summary of the method: as §1

pigweed [18] = experiment: Test A preemergence; type: in vivo, Amaranthus retroflexus; details: for Pigweed plant response rating: 500 g ai/ha
Summary of the method: as §1

Heteranthera limosa = experiment: Test B flooded paddy test; type: in vivo; details: Flood, 250 g ai/ha; 0 to 100 scale where 0 is no effect and 100 is complete control
Summary of the method: as §3

pigweed [19] = experiment: Test A postemergence; type: in vivo, Amaranthus retroflexus; details: 0 to 100 scale where 0 is no effect and 100 is complete control
Summary of the method: as §1

morningglory [20] = experiment: Test A postemergence; type: in vivo, Ipomoea spp.; details: 0 to 100 scale where 0 is no effect and 100 is complete control
Summary of the method: as §1

sedge, umbrella [21] = experiment: Test C flooded paddy test; type: in vivo, Cyperus difformis; details: Flood, scale 0 to 100 (0 no effect, 100 complete control), 13 to 15 days
Text: as §2

morningglory [22] = experiment: Test A preemergence; type: in vivo, Ipomoea spp.
Summary of the method: as §1

galium = experiment: Test A postemergence; type: in vivo, Galium aparine; details: 0 to 100 scale where 0 is no effect and 100 is complete control
Summary of the method: as §1

Italian ryegrass [23] = experiment: Test A postemergence; type: in vivo, Lolium multiflorum; details: 0 to 100 scale where 0 is no effect and 100 is complete control
Summary of the method: as §1

ragweed [24] = experiment: Test A preemergence; type: in vivo, Ambrosia elatior
Summary of the method: as §1

ragweed [25] = experiment: Test A postemergence; type: in vivo, Ambrosia elatior; details: 0 to 100 scale where 0 is no effect and 100 is complete control
Summary of the method: as §1

kochia [26] = experiment: Test A postemergence; type: in vivo, Kochia scoparia; details: 0 to 100 scale where 0 is no effect and 100 is complete control
Summary of the method: as §1

kochia [27] = experiment: Test A preemergence; type: in vivo, Kochia scoparia
Summary of the method: as §1

blackgrass = experiment: Test A postemergence; type: in vivo, Alopecurus myosuroides; details: 0 to 100 scale where 0 is no effect and 100 is complete control
Summary of the method: as §1

Italian ryegrass [28] = experiment: Test A preemergence; type: in vivo, Lolium multiflorum
Summary of the method: as §1

[29] = 500 g ai/ha, 0 to 100 scale where 0 is no effect and 100 is complete control
[30] = 0 to 100 scale where 0 is no effect and 100 is complete control
[31] = 125 g ai/ha, 0 to 100 scale where 0 is no effect and 100 is complete control
[32] = 500 g ai/ha, 0 to 100 scale, 0 no effect, 100 complete control, approx. 10 days
[33] = 0 to 100 scale, 0 no effect, 100 complete control, approx. 10 days

Q: What does the source list for `C#Cc1cnn(-c2ccccc2Oc2ncc(Cl)cn2)c1` [Compound 188]?
A: Velvetleaf plant response rating (0 to 100 scale) (velvetleaf [1]; 125 g ai/ha): 70; Velvetleaf plant response rating (velvetleaf [1]; [29]): 100; Foxtail, Giant plant response rating (giant foxtail [2]; 125 g ai/ha): 60; Plant response rating, Foxtail, Giant (giant foxtail [2]; 500 g ai/ha): 90; Plant response rating, Barnyardgrass (barnyardgrass [3]; 31 g ai/ha): 0; Plant response rating, Barnyardgrass (barnyardgrass [3]; 62 g ai/ha): 0; Plant response rating, Barnyardgrass (barnyardgrass [3]; 125 g ai/ha): 0; Plant response rating, Barnyardgrass (barnyardgrass [3]; 250 g ai/ha): 0; Plant response rating, Ducksalad (ducksalad; 31 g ai/ha): 0; Plant response rating, Ducksalad (ducksalad; 62 g ai/ha): 0; Plant response rating, Ducksalad (ducksalad; 125 g ai/ha): 40; Plant response rating, Ducksalad (ducksalad; 250 g ai/ha): 60; Corn plant response rating (corn [4]; 125 g ai/ha): 20; Plant response rating, Corn (corn [4]; 500 g ai/ha): 50; Foxtail, Giant plant response rating (0 to 100 scale) (giant foxtail [5]; 125 g ai/ha): 90; Foxtail, Giant plant response rating (giant foxtail [5]; [30]): 100; Corn plant response rating (0 to 100 scale) (corn [6]; 125 g ai/ha): 0; Corn plant response rating (corn [6]; [29]): 20; Wheat plant response rating (0 to 100 scale) (wheat [7]; 125 g ai/ha): 0; Wheat plant response rating (wheat [7]; [29]): 30; Crabgrass, Large plant response rating (0 to 100 scale) (large (Lg) crabgrass [8]; 125 g ai/ha): 90; Crabgrass, Large plant response rating (large (Lg) crabgrass [8]; [29]): 100; Plant response rating, Sedge, Umbrella (sedge, umbrella [9]): 90; Plant response rating, Barnyardgrass (barnyardgrass [10]): 30; Barnyardgrass plant response rating (0 to 100 scale, 0 is no effect, 100 is complete control) (barnyardgrass [11]; 125 g ai/ha): 30; Barnyardgrass plant response rating (barnyardgrass [11]; [30]): 100; Velvetleaf plant response rating (velvetleaf [12]; 125 g ai/ha): 90; Plant response rating, Velvetleaf (velvetleaf [12]; 500 g ai/ha): 100; Plant response rating, Rice (rice [13]; 31 g ai/ha): 0; Plant response rating, Rice (rice [13]; 62 g ai/ha): 0; Plant response rating, Rice (rice [13]; 125 g ai/ha): 0; Plant response rating, Rice (rice [13]; 250 g ai/ha): 0; Wheat plant response rating (wheat [14]; 125 g ai/ha): 0; Plant response rating, Wheat (wheat [14]; 500 g ai/ha): 30; Plant response rating, Rice (rice [15]): 0; Barnyardgrass plant response rating (barnyardgrass [16]; 125 g ai/ha): 30; Plant response rating, Barnyardgrass (barnyardgrass [16]; 500 g ai/ha): 90; Crabgrass, Large plant response rating (large (Lg) crabgrass [17]; 125 g ai/ha): 50; Plant response rating, Crabgrass, Large (large (Lg) crabgrass [17]; 500 g ai/ha): 80; Pigweed plant response rating (0 to 100 scale) (pigweed [18]; 125 g ai/ha): 100; Pigweed plant response rating (pigweed [18]; [30]): 100; Plant response rating, Ducksalad (Heteranthera limosa): 90; Pigweed plant response rating (pigweed [19]; 125 g ai/ha): 100; Plant response rating, Pigweed (pigweed [19]; 500 g ai/ha): 100; Morningglory plant response rating (morningglory [20]; 125 g ai/ha): 40; Plant response rating, Morningglory (morningglory [20]; 500 g ai/ha): 100; Plant response rating, Sedge, Umbrella (sedge, umbrella [21]; 31 g ai/ha): 0; Plant response rating, Sedge, Umbrella (sedge, umbrella [21]; 62 g ai/ha): 0; Plant response rating, Sedge, Umbrella (sedge, umbrella [21]; 125 g ai/ha): 50; Plant response rating, Sedge, Umbrella (sedge, umbrella [21]; 250 g ai/ha): 75; Morningglory plant response rating (0 to 100 scale) (morningglory [22]; 125 g ai/ha): 10; Morningglory plant response rating (morningglory [22]; [29]): 90

Q: How did the “Plant response rating, Foxtail, Giant” value (giant foxtail [2]; 125 g ai/ha) turn out when `N#Cc1cnn(-c2c(C#N)cccc2Oc2ncc(I)cn2)c1` [Compound 91] was run?
A: 10

Q: What about the “Plant response rating, Foxtail, Giant” value (giant foxtail [2]; 500 g ai/ha) of the same compound?
A: 10

Q: And the “Plant response rating, Galium” value (galium; 125 g ai/ha)?
A: 40

Q: And the “Plant response rating, Galium” value (galium; 500 g ai/ha)?
A: 70

Q: And the “Plant response rating, Ryegrass, Italian” value (Italian ryegrass [23]; 125 g ai/ha)?
A: 0

Q: And the “Plant response rating, Ryegrass, Italian” value (Italian ryegrass [23]; 500 g ai/ha)?
A: 0

Q: What about the “Plant response rating, Corn” value (corn [4]; 125 g ai/ha) of the same compound?
A: 0

Q: And the “Plant response rating, Corn” value (corn [4]; 500 g ai/ha)?
A: 0

Q: And the “Plant response rating, Ragweed” value (ragweed [24]; [31])?
A: 0

Q: What about the “Ragweed plant response rating” value (ragweed [24]; [32]) of the same compound?
A: 0

Q: What about the “Plant response rating, Foxtail, Giant” value (giant foxtail [5]; [31]) of the same compound?
A: 10

Q: What about the “Foxtail, Giant plant response rating” value (giant foxtail [5]; [33]) of the same compound?
A: 30

Q: And the “Plant response rating, Ragweed” value (ragweed [25]; 125 g ai/ha)?
A: 10

Q: What about the “Plant response rating, Ragweed” value (ragweed [25]; 500 g ai/ha) of the same compound?
A: 30

Q: What about the “Plant response rating, Kochia” value (kochia [26]; 125 g ai/ha) of the same compound?
A: 10

Q: What about the “Plant response rating, Kochia” value (kochia [26]; 500 g ai/ha) of the same compound?
A: 30

Q: What about the “Plant response rating, Sedge, Umbrella” value (sedge, umbrella [9]) of the same compound?
A: 0

Q: And the “Plant response rating, Barnyardgrass” value (barnyardgrass [10])?
A: 0

Q: What about the “Plant response rating, Barnyardgrass” value (barnyardgrass [11]; [31]) of the same compound?
A: 0

Q: What about the “Barnyardgrass plant response rating” value (barnyardgrass [11]; [33]) of the same compound?
A: 0

Q: What about the “Plant response rating, Kochia” value (kochia [27]; [31]) of the same compound?
A: 30

Q: What about the “Kochia plant response rating” value (kochia [27]; [32]) of the same compound?
A: 90

Q: What about the “Plant response rating, Wheat” value (wheat [14]; 125 g ai/ha) of the same compound?
A: 0

Q: And the “Plant response rating, Wheat” value (wheat [14]; 500 g ai/ha)?
A: 10

Q: What about the “Plant response rating, Rice” value (rice [15]) of the same compound?
A: 0

Q: What about the “Plant response rating, Barnyardgrass” value (barnyardgrass [16]; 125 g ai/ha) of the same compound?
A: 0

Q: And the “Plant response rating, Barnyardgrass” value (barnyardgrass [16]; 500 g ai/ha)?
A: 10

Q: And the “Plant response rating, Pigweed” value (pigweed [18]; [31])?
A: 70

Q: And the “Pigweed plant response rating” value (pigweed [18]; [33])?
A: 90

Q: What about the “Plant response rating, Ducksalad” value (Heteranthera limosa) of the same compound?
A: 0

Q: And the “Plant response rating, Blackgrass” value (blackgrass; 125 g ai/ha)?
A: 0

Q: And the “Plant response rating, Blackgrass” value (blackgrass; 500 g ai/ha)?
A: 30

Q: And the “Plant response rating, Ryegrass, Italian” value (Italian ryegrass [28]; [31])?
A: 0

Q: What about the “Ryegrass, Italian plant response rating” value (Italian ryegrass [28]; [32]) of the same compound?
A: 30

Q: And the “Plant response rating, Pigweed” value (pigweed [19]; 125 g ai/ha)?
A: 10

Q: And the “Plant response rating, Pigweed” value (pigweed [19]; 500 g ai/ha)?
A: 50
